The test system of one assay is DIGSA. As to the kind of experiment: Pre-emergence action against DIGSA. The settings on record: dosage 320 g/ha, scored visually after 3 weeks vs untreated controls. It counts as in vivo, Digitaria sanguinalis. The source says:
Seeds of monocotyledonous and dicotyledonous weed plants and crop plants are laid out in sandy loam soil in wood-fiber pots and covered with soil. The compounds of the invention, formulated in the form of wettable powders (WP) or as emulsion concentrates (EC), are then applied to the surface of the covering soil in the form of an aqueous suspension or emulsion at a water application rate equating to […], with addition of 0.2% wetting agent. After the treatment, the pots are placed in a greenhouse and kept under good growth conditions for the trial plants. The damage to the test plants is scored visually after a test period of 3 weeks by comparison with untreated controls (herbicidal activity in percent (%): 100% activity=the plants have died, 0% activity=like control plants).

The subject of assay [1] is ECHCG. Description: Pre-emergence action against ECHCG. It counts as in vivo, Echinochloa crus-galli. The settings on record: pre-emergence, dosage 320 g/ha, scored visually after 3 weeks vs untreated controls. A digest of the protocol: (§1)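 Seeds sown in sandy loam in wood-fiber pots and covered with soil. Greenhouse growth; visual damage scored after 3 weeks versus untreated controls (100% = dead, 0% = like control).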

Assay [2] relates to ABUTH. Description: Pre-emergence action against ABUTH. It counts as in vivo, Abutilon theophrasti. The settings on record: pre-emergence, dosage 320 g/ha, scored visually after 3 weeks vs untreated controls. A digest of the protocol:
as §1

Assay [3] has as its system AMARE. Description: Pre-emergence action against AMARE. It counts as in vivo, Amaranthus retroflexus. The settings on record: pre-emergence, dosage 320 g/ha, scored visually after 3 weeks vs untreated controls. In outline:
as §1

The test system of assay [4] is VIOTR. Description: Pre-emergence action against VIOTR. It counts as in vivo, Viola tricolor. Particulars: Dosage 320 g/ha, pre-emergence. A digest of the protocol: as §1
Assay [5] deals with VERPE. As to the kind of experiment: Pre-emergence action against VERPE. It counts as in vivo, Veronica persica. The settings on record: Dosage 320 g/ha, pre-emergence. In outline:
as §1

The subject of assay [6] is AVEFA. As to the kind of experiment: Post-emergence action against AVEFA. It counts as in vivo, Avena fatua. Particulars: post-emergence, dosage 80 g/ha, visual assessment about 3 weeks after treatment vs untreated controls. A digest of the protocol: (§2)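 Weeds grown in sandy loam in greenhouse, treated at one-leaf stage (2–3 weeks after sowing) with WP or EC formulations sprayed as aqueous suspension/emulsion at 600 to […] water with 0.2% wetting agent. Visual rating after about 3 weeks versus untreated controls, as % herbicidal action (100% = plants dead, 0% = like control).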

Assay [7] relates to ECHCG. Description: Post-emergence action against ECHCG. It counts as in vivo, Echinochloa crus-galli. Particulars: post-emergence, dosage 80 g/ha, visual assessment about 3 weeks after treatment vs untreated controls. In outline:
as §2

The subject of assay [8] is ABUTH. As to the kind of experiment: Post-emergence action against ABUTH. It counts as in vivo, Abutilon theophrasti. The settings on record: post-emergence, dosage 80 g/ha, visual assessment about 3 weeks after treatment vs untreated controls. A digest of the protocol: as §2
Assay [9] concerns AMARE. Description: Post-emergence action against AMARE. It counts as in vivo, Amaranthus retroflexus. Particulars: post-emergence, dosage 80 g/ha, visual assessment about 3 weeks after treatment vs untreated controls. In outline:
as §2

For assay [10], the system named is PHBPU. Description: Post-emergence action against PHBPU. It counts as in vivo, Pharbitis purpurea. The settings on record: post-emergence, dosage 80 g/ha. In outline: as §2
Assay [11] concerns VIOTR. As to the kind of experiment: Post-emergence action against VIOTR. It counts as in vivo, Viola tricolor. The settings on record: post-emergence, dosage 80 g/ha. In outline:
as §2

Assay [12] has as its system AVEFA. As to the kind of experiment: Pre-emergence action against AVEFA. It counts as in vivo, Avena fatua. Particulars: dosage 320 g/ha, scored visually after 3 weeks vs untreated controls. In outline: as §1
A further assay relates to LOLRI. As to the kind of experiment: Pre-emergence action against LOLRI. It counts as in vivo, Lolium rigidum. The settings on record: dosage 320 g/ha, scored visually after 3 weeks vs untreated controls. In outline:
as §1

For assay [13], the system named is MATIN. Description: Pre-emergence action against MATIN. It counts as in vivo, Matricaria inodora. The settings on record: Dosage 320 g/ha, pre-emergence. A digest of the protocol:
as §1

Assay [14] deals with STEME. As to the kind of experiment: Pre-emergence action against STEME. It counts as in vivo, Stellaria media. Particulars: Dosage 320 g/ha, pre-emergence. A digest of the protocol: as §1
Assay [15] has as its system STEME. Description: Post-emergence action against STEME. It counts as in vivo, Stellaria media. The settings on record: post-emergence, dosage 80 g/ha. A digest of the protocol: as §2
A further assay relates to ALOMY. As to the kind of experiment: Pre-emergence action against ALOMY. It counts as in vivo, Alopecurus myosuroides. The settings on record: Alopecurus myosuroides, 504 h; dosage 320 g/ha; pre-emergence; scored visually after 3 weeks vs untreated controls; 100% = plants have died, 0% = like control plants; read-out: Pre-emergence action against ALOMY (herbicidal activity in percent). In outline:
as §1

The subject of another assay is SETVI. As to the kind of experiment: Pre-emergence action against SETVI. It counts as in vivo, Setaria viridis. Particulars: Setaria viridis, 504 h; pre-emergence, dosage 320 g/ha, scored visually after 3 weeks vs untreated controls; read-out: SETVI (Table B8, pre-emergence herbicidal activity). In outline:
as §1

Assay [16] concerns PHBPU. As to the kind of experiment: Pre-emergence action against PHBPU. It counts as in vivo, Pharbitis purpurea. The settings on record: Ipomoea purpurea, 504 h; Dosage 320 g/ha, pre-emergence. In outline: as §1
The subject of another assay is POLCO. Description: Pre-emergence action against POLCO. It counts as in vivo, Polygonum convolvulus. The settings on record: Fallopia convolvulus, 504 h; Dosage 320 g/ha, pre-emergence. A digest of the protocol: as §1
The test system of assay [17] is MATIN. As to the kind of experiment: Post-emergence action against MATIN. It counts as in vivo, Matricaria inodora. The settings on record: Tripleurospermum inodorum, 504 h; post-emergence, dosage 80 g/ha, visual assessment about 3 weeks after treatment vs untreated controls; read-out: Post-emergence action against MATIN (herbicidal action in percent). A digest of the protocol:
as §2

Assay [18] relates to VERPE. Description: Post-emergence action against VERPE. It counts as in vivo, Veronica persica. Particulars: Veronica persica, 504 h, dosage 80 g/ha. A digest of the protocol:
as §2

On to `Cn1nnnc1NC(=O)c1ccc(C(F)(F)F)c(C(=O)c2cc(F)cc(F)c2)c1Cl` [1-287], for which the “Pre-emergence action against DIGSA (herbicidal activity)” value (“Pre-emergence action against DIGSA” for short) with DIGSA came out at 80%. Also, the “Pre-emergence action against ECHCG (herbicidal activity)” value with ECHCG [1] worked out at 80%. For the same compound, the “Pre-emergence action against ABUTH (herbicidal activity)” value in the assay on ABUTH [2] came to 100%. The “Pre-emergence action against AMARE (herbicidal activity)” value in the assay on AMARE [3] turned out to be 100%. In addition, the “Pre-emergence action against VIOTR” value in the assay on VIOTR [4] is reported as 100%. Further, the “Pre-emergence action against VERPE” value in the assay on VERPE [5] stood at 100%. In the assay with AVEFA [6], the “Post-emergence action against AVEFA (herbicidal action in percent)” value is 80%. Moreover, in the assay with ECHCG [7], the “Post-emergence action against ECHCG (herbicidal action in percent)” value is listed as 90%. For the same compound, the “Post-emergence action against ABUTH (herbicidal action in percent)” value with ABUTH [8] amounted to 80%. For the same compound, the “Post-emergence action against AMARE (herbicidal action in percent)” value with AMARE [9] was 90%. For the same compound, the “Post-emergence action against PHBPU” value with PHBPU [10] was 90. Besides, in the assay with VIOTR [11], the “Post-emergence action against VIOTR” value worked out at 90.

On to `CSc1c(C(=O)Nc2nnnn2C)ccc(C(F)(F)F)c1C(=O)C1CCCC1` [1-285], for which, in the assay with AVEFA [12], the “Pre-emergence action against AVEFA (herbicidal activity)” value worked out at 80%. The “Pre-emergence action against DIGSA” value in the assay on DIGSA stood at 90%. Also, in the assay on ECHCG [1], the “Pre-emergence action against ECHCG (herbicidal activity)” value is recorded as 80%. Moreover, the “Pre-emergence action against LOLRI (herbicidal activity)” value with LOLRI is reported as 80%. Moreover, the “Pre-emergence action against ABUTH (herbicidal activity)” value in the assay on ABUTH [2] came to 100%. In addition, the “Pre-emergence action against AMARE (herbicidal activity)” value in the assay on AMARE [3] stood at 100%. The “Pre-emergence action against MATIN” value in the assay on MATIN [13] is given as 100%. In addition, in the assay with STEME [14], the “Pre-emergence action against STEME” value is 100%. Moreover, in the assay with VIOTR [4], the “Pre-emergence action against VIOTR” value is given as 100%. Moreover, the “Pre-emergence action against VERPE” value with VERPE [5] came to 90%. The “Post-emergence action against ABUTH (herbicidal action in percent)” value with ABUTH [8] is 90%. Moreover, the “Post-emergence action against AMARE (herbicidal action in percent)” value with AMARE [9] came to 90%. Further, in the assay with PHBPU [10], the “Post-emergence action against PHBPU” value is 80. Also, the “Post-emergence action against STEME” value in the assay on STEME [15] is 80.

As to `Cc1ccc(C(=O)Nc2nnnn2C)c(C)c1C(=O)C1CC1` [1-3], the pest or weed control at 320 g/ha in the assay with ALOMY stood at 90%; in the assay with ECHCG [1] (Echinochloa crus-galli, 504 h, read-out: Pre-emergence action against ECHCG (herbicidal activity)) it was 90%; with SETVI, 90%; with ABUTH [2] (Abutilon theophrasti, 504 h, read-out: Pre-emergence action against ABUTH (herbicidal activity)) it was 90%; with AMARE [3] (Amaranthus retroflexus, 504 h, read-out: Pre-emergence action against AMARE (herbicidal activity)), 100%; in the assay with MATIN [13] (Tripleurospermum inodorum, 504 h), 100%. For the same compound, the pest or weed control at 320 g/ha in the assay on PHBPU [16] is 80%; in the assay on POLCO it was 80%; with STEME [14] (Stellaria media, 504 h), 90%; in the assay with VIOTR [4] (Viola tricolor, 504 h) it was 90%; in the assay on VERPE [5] (Veronica persica, 504 h) it was 90%. Also, the “Pre-emergence action against DIGSA” value with DIGSA is given as 90%. The pest or weed control at 80 g/ha in the assay with ABUTH [8] (Abutilon theophrasti, 504 h, read-out: Post-emergence action against ABUTH (herbicidal action in percent)) stood at 100%; in the assay with AMARE [9] (Amaranthus retroflexus, 504 h, read-out: Post-emergence action against AMARE (herbicidal action in percent)) it was 100%; in the assay on MATIN [17] it was 90%; with PHBPU [10] (Ipomoea purpurea, 504 h), 90%; in the assay with STEME [15] (Stellaria media, 504 h), 90%; in the assay with VERPE [18], 90%.

Source of the values: patent US11051515B2, “3-acyl-benzamides and their use as herbicides” (Bayer Aktiengesellschaft, priority 2017, dated 2021).
